The values below are quoted from earlier work in US9718036B2, “Method of preparing carrier liquids” (The University of Liverpool, priority 2011, dated 2017).

The conditions of this data set: at 20° C.

Values after ≈ are worked out from the molar mass of the structure shown.

Regarding `CC1(C)C(/C=C(\Cl)C(F)(F)F)C1C(=O)OC(C#N)c1cccc(Oc2ccccc2)c1` (stereo not shown) [λ-cyhalothrin], the solubility in water is 5 µg/mL (≈ 11.1 µM).
